Article PMC7235904, “Is Blood a Good Indicator for Detecting Antimicrobials in Meat? Evidence for the Development of In Vivo Surveillance Methods” (Antibiotics, 2020)
Like-named read-outs stand apart in the source and are kept apart here. Marks after values point to notes of the source that are not given here.

Experiments:
[1] = Antimicrobial residue concentration and depletion in muscle of treated pigs within the withdrawal period (LC-MS/MS or HPLC-FLD); format: in vivo; settings: for half-life: both sexes, T1/2=Ln(2)/λz, read-out: T1/2 half-life of elimination (MUSCLE) (converted); for half-life / concentration at 2 day of withdrawal period / concentration at 3 day of withdrawal period / concentration at 4 day of withdrawal period / concentration at 7 day of withdrawal period / concentration at 15 day of withdrawal period: intramuscular; for concentration at 2 day of withdrawal period: withdrawal period Day 2, pig; for concentration at 3 day of withdrawal period: withdrawal period Day 3, pig; for Maximum concentration value in Muscle / Minimum concentration value in Muscle: over the sample bank of treated piglets; for Time until levels reached the detection limit (DL) in muscle: DL 10 µg/kg; for Slope (MUSCLE): regression of concentration over the withdrawal period, deep intramuscular treatment; for concentration at 4 day of withdrawal period: withdrawal period Day 4, pig; for concentration at 7 day of withdrawal period: withdrawal period Day 7, pig; for concentration at 15 day of withdrawal period: withdrawal period Day 15, pig
From the text: To obtain samples containing antimicrobial compounds administered in vivo, 93 piglets (62 female, 31 male) with an average weight of 43.00 ± 12.79 kg were provided at treatment onset. These piglets were untreated animals that remained on the premises of the Faculty of Veterinary Sciences at the University of Zaragoza (Zaragoza, Spain) 40 days before administration of the compounds. Both during the acclimatization and withdrawal periods, animals were fed ad libitum with a special mixed feed that was free of antibiotics ([…], Spain), and water was provided from a separated, controlled water circuit. Piglets were raised in separate pens depending on the antibiotic administrated. After administration, animals were slaughtered at preset intervals within the withdrawal period in order to obtain samples containing different antimicrobial concentrations above and below the MRLs for muscle. Figure S1 indicates the slaughter days and the withdrawal periods set by the manufacturer for each antimicrobial compound administered. Between one and three piglets were slaughtered on the same day post-administration. The day of slaughter was calculated from the first day after the last antimicrobial treatment dose. […] Apart from samples containing antimicrobial compounds administered in vivo, and as a part of the sample bank, 15 of the 93 piglets were slaughtered after the acclimatization period and before treatment onset. Animals were stunned and slaughtered following the guidelines established by European Council Regulation (EC) No. 1099/2009 [39] regarding the protection of animals at the time of slaughter or killing. A penetrative captive bolt gun was used to stun the pigs, positioning it firmly against the skin, in the middle of the forehead, 2 cm above the line of the eyes, aiming towards the tail. This was followed by complete exsanguination carried out by incision in the jugular furrow at the base of the neck to sever all the major blood vessels arising from the heart. The samples obtained from them were used as blank samples for analysis. […] Samples were immediately frozen at -20 °C until analysis. For HPLC-FLD analyses, matrix solid phase dispersion (MSPD) was used. A total of 1.00 ± 0.01 g of tissue was weighed. Internal quality control samples were spiked at this point. […] It was introduced into a 25 mL reservoir and compacted. Clean-up was made with 8 mL of hexane, and quinolones were eluted with 15 mL acetonitrile/methanol (1:1) acidified with acetic acid 1%. […] The extraction procedure for LC-MS/MS determination was based on Chico et al.. […] All samples were spiked with IS at this point, and calibrants and internal quality control samples were prepared by spiking the corresponding amount of standard working solution. A total of 200 μL of 0.1 M EDTA was added, followed by 10 mL of 70% methanol, and samples were vortexed for 30 s, swung for 15 min, and finally centrifuged at 4500 rcf for 10 min at a temperature below 10 °C (Heraeus Multifuge X3 FR, Heraeus, Hanau, Germany). Then, 500 μL of supernatant was collected and diluted by adding 1500 μL of water. Extracts were filtered through 0.2 μm pore filters directly into LC-MS/MS vials. […] Mobile phase consisted of eluent A: phosphoric acid with trimethylamine buffer (pH = 3), and eluent B: acetonitrile, in isocratic mode (21:79) with a flow rate of 1 mL/min. Injected volume was 50 μL. […] The same mobile phase and gradient conditions as in SCIEX instruments were applied. Injected volume was 10 μL. Two ESI+ MRM transitions were monitored for each compound (Table S5). […] Results were represented as the mean ± standard deviation using the PRISM program (GraphPad Software, Inc., San Diego, USA). The rates of elimination (λz) of antibiotics from muscle and blood were determined by regression analysis. […]

[2] = Antimicrobial residue concentration and depletion in blood (serum) of treated pigs within the withdrawal period (LC-MS/MS); format: in vivo; settings: for half-life: both sexes, intramuscular, T1/2=Ln(2)/λz, read-out: T1/2 half-life of elimination (BLOOD) (converted); for half-life / Slope (BLOOD): pig blood serum; for Maximum concentration value in Blood / Minimum concentration value in Blood: over the sample bank of treated piglets; for Slope (BLOOD): regression of concentration over the withdrawal period, deep intramuscular treatment; for Time until levels reached the detection limit (DL) in blood: DL 10 µg/kg
From the text: To obtain samples containing antimicrobial compounds administered in vivo, 93 piglets (62 female, 31 male) with an average weight of 43.00 ± 12.79 kg were provided at treatment onset. These piglets were untreated animals that remained on the premises of the Faculty of Veterinary Sciences at the University of Zaragoza (Zaragoza, Spain) 40 days before administration of the compounds. Both during the acclimatization and withdrawal periods, animals were fed ad libitum with a special mixed feed that was free of antibiotics ([…], Spain), and water was provided from a separated, controlled water circuit. Piglets were raised in separate pens depending on the antibiotic administrated. After administration, animals were slaughtered at preset intervals within the withdrawal period in order to obtain samples containing different antimicrobial concentrations above and below the MRLs for muscle. Figure S1 indicates the slaughter days and the withdrawal periods set by the manufacturer for each antimicrobial compound administered. Between one and three piglets were slaughtered on the same day post-administration. The day of slaughter was calculated from the first day after the last antimicrobial treatment dose. […] Apart from samples containing antimicrobial compounds administered in vivo, and as a part of the sample bank, 15 of the 93 piglets were slaughtered after the acclimatization period and before treatment onset. Animals were stunned and slaughtered following the guidelines established by European Council Regulation (EC) No. 1099/2009 [39] regarding the protection of animals at the time of slaughter or killing. A penetrative captive bolt gun was used to stun the pigs, positioning it firmly against the skin, in the middle of the forehead, 2 cm above the line of the eyes, aiming towards the tail. This was followed by complete exsanguination carried out by incision in the jugular furrow at the base of the neck to sever all the major blood vessels arising from the heart. The samples obtained from them were used as blank samples for analysis. Blood was collected not only from slaughtered animals, but also from living animals on each day of slaughter. […] For quinolones in blood serum samples, a LC-MS/MS method was set up using a SCIEX Exion LC coupled to TripleQuad 6500+ triple quadrupole detector equipped with an Acquity Ultra Performance Liquid Chromatography Ethylene Bridged Hybrid (UPLC BEH) C18 (1.7 μm, 2.1 × 100 mm) column. Mobile phase consisted of eluent A: 0.1% formic acid in water, and eluent B: 0.1% formic acid in acetonitrile at a flow rate of 0.4 mL/min. […] Injected volume was 5 μL. Analytes were detected using positive electrospray ionization (ESI+) in multiple reaction monitoring (MRM) mode, and two transitions were monitored for each compound of interest (Table S4). […] The same mobile phase and gradient conditions as in SCIEX instruments were applied. […] Two ESI+ MRM transitions were monitored for each compound (Table S5). […] Results were represented as the mean ± standard deviation using the PRISM program (GraphPad Software, Inc., San Diego, USA). The rates of elimination (λz) of antibiotics from muscle and blood were determined by regression analysis. The corresponding half-lives of elimination were calculated according to the following equation: Half-life of elimination.

[3] = set-up: method as in earlier work; settings: cited from earlier work
[4] = cited from earlier work; for Suppression Period (withdrawal period set by the manufacturer): commercial product, deep intramuscular, ref manufacturer; for MRLs: muscle, ref Regulation (EEC) No. 2377/90
[5] = forequarter muscle, read-out: Concentration in Forequarters
[6] = hindquarter muscle, read-out: Concentration in Hindquarters
[7] = loin muscle, read-out: Concentration in Loins

SMILES	half-life ([1]; pig muscle) [days]	concentration at 2 day of withdrawal period [1, 5] [ng/g]	concentration at 2 day of withdrawal period [1, 6] [ng/g]	concentration at 2 day of withdrawal period [1, 7] [ng/g]	Maximum concentration value in Muscle [1] [µg/kg]	Minimum concentration value in Muscle [1] [µg/kg]	Time until levels reached the detection limit (DL) in muscle ([1]; pig muscle) [days after inoculation]	Slope (MUSCLE) ([1]; pig muscle)	half-life [2] [days]	Maximum concentration value in Blood [2] [µg/kg]	Minimum concentration value in Blood [2] [µg/kg]	Slope (BLOOD) [2]	Time until levels reached the detection limit (DL) in blood ([2]; pig blood) [days after inoculation]	Suppression Period (withdrawal period set by the manufacturer) [4] [days]	MRLs [4] [µg/kg]	other results
CCN1CCN(c2cc3c(cc2F)c(=O)c(C(=O)O)cn3C2CC2)CC1 [Enrofloxacin, enrofloxacin]	0.92	374 ± 4.73	387 ± 8.5	383 ± 2	1858.00 ± 156.37	18.00 ± 2.65	7	−0.3289 ± 0.01929 ^a	1.9	448.50 ± 2.12	21.67 ± 1.15	−0.2213 ± 0.01639 ^b	8			concentration at 3 day of withdrawal period [1, 5]: 990.5 ± 3.54 ng/g; concentration at 3 day of withdrawal period [1, 6]: 1075 ± 1.41 ng/g; concentration at 3 day of withdrawal period [1, 7]: 1060 ± 2.12 ng/g
CN(C)[C@@H]1C(O)=C(C(N)=O)C(=O)[C@@]2(O)C(O)=C3C(=O)c4c(O)cccc4[C@@](C)(O)[C@H]3[C@H](O)[C@@H]12 [Oxytetracycline, oxytetracycline]	3.43				1005.33 ± 55.47	31.33 ± 3.21	26	−0.08784 ± 0.005403 ^a	3.59	615.00 ± 204.47	24.00 ± 1.73	−0.08879 ± 0.007069 ^a	25	28	100	concentration at 4 day of withdrawal period [1, 5]: 971 ± 53.3 ng/g; concentration at 7 day of withdrawal period [1, 5]: 411 ± 27.5 ng/g; concentration at 15 day of withdrawal period [1, 5]: 99.7 ± 6.51 ng/g; concentration at 4 day of withdrawal period [1, 6]: 1010 ± 55.5 ng/g; concentration at 7 day of withdrawal period [1, 6]: 383 ± 45.9 ng/g; concentration at 15 day of withdrawal period [1, 6]: 100 ± 16 ng/g; concentration at 4 day of withdrawal period [1, 7]: 905 ± 118 ng/g; concentration at 7 day of withdrawal period [1, 7]: 383 ± 12.9 ng/g; concentration at 15 day of withdrawal period [1, 7]: 125 ± 15.7 ng/g; Share of the dose eliminated in the feces [3]: 40%; Share of the dose eliminated in urine via glomerular filtration [3]: 60%
CC1(C)S[C@@H]2[C@H](NC(=O)[C@H](N)c3ccc(O)cc3)C(=O)N2[C@H]1C(=O)O [Amoxicillin, amoxicillin]		20.7 ± 1.15	25.3 ± 6.43	149 ± 8.54	307.00 ± 10.39	13.33 ± 2.52				73.00 ± 6.24	19.00 ± 1.00			25	50	Concentration in loins compared with forequarters and hindquarters ([1]; pig muscle groups, Table S1): over seven times higher; Time at which muscle amounts were close to the MRL ([1]; pig muscle, MRL 50 µg/kg): first day of the withdrawal period; Time at which blood amounts were close to the MRL ([2]; pig blood, MRL 50 µg/kg): first day of the withdrawal period
